Patent publication US20220241278A1 (InCarda Therapeutics, Inc., priority 2021, published 2022)

Columns and labels:
[1] = Appearance of about 30 mg/mL imatinib free base in 30% SBEβCD, 50 mM phosphate buffer at different pH; details: about 30 mg/mL in 30% SBβCD
[2] = Rat pharmacokinetics: lung tissue and plasma concentration after IV or IT administration; assay type: in vivo, Sprague Dawley rats; details: IV data, 60 min sample collection period
Experimental: Lung tissue and blood were collected for analysis.
Test System: 72 male Sprague Dawley rats (Charles River Laboratories) were used for the study, 8 weeks old, body weight range at study start was 245.8-317 g.
Experimental Design and Execution: In brief, after the animals were transferred to study, all animals were randomly assigned to treatment groups per the study design below. Animals were treated either via intravenous (IV) administration of formulation R1, or via intratracheal (IT) administration for formulation R2 of the test article.
Plasma and lung concentration vs. time data was analyzed using JMP version 15.2.0. Averages for each time point are reported for groups/time points that have a minimum of 2 animals.
The Therapeutic Advantage (Rd) in Table 8 was calculated using the following equation: […]

With `Cc1ccc(NC(=O)c2ccc(CN3CCN(C)CC3)cc2)cc1Nc1nccc(-c2cccnc2)n1` [imatinib free base, imatinib] the “appearance of the mixture” value ([1]; pH 3) was “clear solutions”, the “appearance of the mixture” value ([1]; pH 5) was “clear solutions” and the “appearance of the mixture” value ([1]; pH 7) was “white suspension”. For the same molecule, the “distribution between lung tissue and plasma” value [2] was “preferentially accumulates in the lung tissue”.
